The values that follow are results of earlier work, collected in PMC8453963 (Chemmedchem, 2021).

Marks after values point to notes of the source that are not given here.

For this series the following is noted: ref [53].

`O=C([O-])CN(CCN(CC(=O)[O-])Cc1cc(CCC(=O)NCCCCCC(=O)NCCCC[C@H](NC(=O)N[C@@H](CCC(=O)O)C(=O)O)C(=O)O)ccc1[O-])Cc1cc(CCC(=O)O)ccc1[O-].[68Ga+3].[OH3+]` [[^68Ga]Ga‐PSMA‐11]: the “log D oct/PBS” value is −2.91^[a].
